Measurements from patent publication US20070105825A1, “Concurrent drugs” (priority 2004, published 2007).

Assays:
[1] = test system: whole blood; test: Improvement effect on activated state of blood coagulation (activated whole blood clotting time, Hemochron); format: cell-based, rabbit (Japanese White, male); settings: rabbit whole blood; for significant prolonged effect on the activated whole blood clotting time to the control: independent use, 1 μM; for activated clotting time (mean ± S.E.): single application, antiplatelet drug 1 μM, control 218 ± 5.1
Procedure: Citrate blood collected from a rabbit (Japanese White, male) was used for the test as the whole blood after maintaining room temperature for 30-60 minutes. 376 μL of the whole blood, 4 μL of a dimethylsulfoxide and 20 μL of a 250 mM calcium chloride solution were poured into a test tube for measurement of activated whole blood clotting time (Hemochron test tube P214, International Technidyne Corporation). After slight stirring of the mixture, an activated whole blood clotting time was measured by a blood clotting meter (Hemochron 801, International Technidyne Corporation) as the control.

[2] = test system: thrombus formation in abdominal aorta of rats; test: Inhibitory effect on thrombus formation (FeCl2-induced abdominal aorta thrombus, total protein content); format: in vivo, rat (Sprague-Dawley, male); settings: rat; for significant inhibitory effects on the thrombus formation compared with group A as control: alone: cilostazol 100 mg/kg oral or compound Id 3 mg/kg subcutaneous; for Total protein amount in thrombus: single application, control 1.52 ± 0.39
Procedure: Rats (Sprague-Dawley rats, male) were divided into four groups of A, B, C and D. 0.5% methylcellulose solution was orally administrated into the rats of groups A and B, and cilostazol (100 mg/kg) was orally administrated into the rats of groups C and D. […] Simultaneously, the all rats of groups A-D were anesthetized by intraperitoneal injection of 5 mL/kg of 20% urethane solution. […] After removing of the filter paper, each rat was left at rest for additional 25 minutes. Then, the abdominal aorta was ligated at both upper and lower ends of the thrombus induction site. All the thrombus adhering to the inside of the excised abdominal aorta were harvested and dissolved in 1 mL of 0.5 N sodium hydroxide solution as the test solution. The total protein content in the test solution was measured using Coomasie Plus Protein Assay Kit (PIERCE Corp.) as the index of the thrombus formation.

CC(=O)Oc1ccccc1C(=O)O [Aspirin, aspirin]
significant prolonged effect on the activated whole blood clotting time to the control [1]: showed a significant prolonged effect
activated clotting time (mean ± S.E.) [1]: 215 ± 16.3 s

OCCN(CCO)c1nc(N2CCCCC2)c2nc(N(CCO)CCO)nc(N3CCCCC3)c2n1 [Dipyridamole, dipyridamole]
significant prolonged effect on the activated whole blood clotting time to the control [1]: showed a significant prolonged effect
activated clotting time (mean ± S.E.) [1]: 210 ± 10.9 s

CS(=O)(=O)c1ccccc1-c1ccc(CCNS(=O)(=O)c2cc(C(=N)N)ccc2O)c(OCC(=O)O)c1 [Compound Id]
significant inhibitory effects on the thrombus formation compared with group A as control [2]: not observed
Total protein amount in thrombus ([2]; compound Id 3 mg/kg subcutaneous, n=4): 0.94 ± 0.30 mg

O=C1CCc2cc(OCCCCc3nnnn3C3CCCCC3)ccc2N1 [Cilostazol, cilostazol]
significant inhibitory effects on the thrombus formation compared with group A as control [2]: not observed
Total protein amount in thrombus ([2]; cilostazol 100 mg/kg oral, n=3): 1.39 ± 0.45 mg
significant prolonged effect on the activated whole blood clotting time to the control [1]: showed a significant prolonged effect
activated clotting time (mean ± S.E.) [1]: 205 ± 5.8 s
